pKi: −log10 of the molar value.

Chain of Adenosine receptor A2a (P29274 whole entry): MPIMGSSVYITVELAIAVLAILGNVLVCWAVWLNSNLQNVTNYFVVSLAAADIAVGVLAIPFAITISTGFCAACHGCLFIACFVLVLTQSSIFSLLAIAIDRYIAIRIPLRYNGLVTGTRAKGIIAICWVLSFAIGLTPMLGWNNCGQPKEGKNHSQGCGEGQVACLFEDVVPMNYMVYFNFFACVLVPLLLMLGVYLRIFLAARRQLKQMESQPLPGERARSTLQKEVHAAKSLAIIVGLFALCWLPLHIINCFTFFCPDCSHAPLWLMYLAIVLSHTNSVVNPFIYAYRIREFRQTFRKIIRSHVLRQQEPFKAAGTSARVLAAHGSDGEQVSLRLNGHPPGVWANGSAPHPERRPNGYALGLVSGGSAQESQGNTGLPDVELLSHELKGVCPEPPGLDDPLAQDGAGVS

For the first assay, the target named is T1, Adenosine receptor A1 (Homo sapiens, UniProt P30542).
T1 sequence (P30542 whole entry): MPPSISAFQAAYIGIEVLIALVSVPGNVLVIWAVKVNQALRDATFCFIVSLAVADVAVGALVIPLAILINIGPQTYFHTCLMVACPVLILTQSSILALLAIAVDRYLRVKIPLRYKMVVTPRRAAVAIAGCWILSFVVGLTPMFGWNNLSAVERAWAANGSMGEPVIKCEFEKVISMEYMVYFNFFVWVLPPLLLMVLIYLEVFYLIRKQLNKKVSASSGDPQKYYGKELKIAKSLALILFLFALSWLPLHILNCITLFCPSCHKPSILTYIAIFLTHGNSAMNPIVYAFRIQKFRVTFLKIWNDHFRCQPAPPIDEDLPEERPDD
The experiment in a line: Adenosine Receptor Time-Resolved Fluorescence Resonance Energy Transfer (TRFRET) Binding Assay. How it is done: (§1) All FRET binding experiments were conducted at room temperature in white 384-well plates, in assay binding buffer containing 1× LabMed (Cisbio, France), 100 μg/mL saponin, 1% DMSO and 0.02% pluronic acid. Binding of the fluorescently labelled Adenosine receptor antagonist XAC (CA200645, FRET acceptor) to terbium-labelled A1, A2a, A2b and A3 adenosine receptors (FRET donors) was detected by time-resolved FRET due to the close proximity of the donor and acceptor in a binding event. To investigate the ability of unlabelled test compounds to bind to Adenosine A1, A2a, A2b and A3 receptors, dose response curves were constructed that determined the ability of a range of concentrations to inhibit the binding of 30 nM CA200645 to the A2b receptor and 100 nM CA200645 to the A1, A2a, and A3 receptor.Serial dilution (1:3 dilutions) of test compounds in neat DMSO and transfer of a 400 nL sample of test compound into the assay plate was carried out using the Mosquito (TTP Labtech, UK). The compound samples were incubated for 2 hours at room temperature with a fixed concentration of CA200645 defined for each receptor (see above) and CHO cell membranes containing the human Adenosine A1 (0.5 μg/well), A2a (0.3 μg/well), A2b (1 μg/well) or A3 (1 μg/well) receptor in 40 μL of assay buffer. Total and non-specific binding of CA200645 was determined in the absence and presence of 10 μM XAC, respectively. Following 2 hours incubation, the level of CA200645 binding was detected on a Pherastar FSX (BMG Labtech, Germany) using standard TR-FRET settings.
In general terms: TR-FRET usually uses a lanthanide donor and a delayed reading to cut background.
The term pKi denotes the Ki on a negative log10 scale, so that one unit is a factor of ten. Regarding `Cc1ncnc2ccc(-c3sc(NC(=O)N4CCC(N(C)C)CC4)nc3-c3cccc(C#N)c3)cc12` [US20250243194, Example 7.6], the pKi was 7.21.
Regarding `Cc1ncnc2ccc(-c3sc(NC(=O)N4CCN(C)CC4)nc3-c3cccc(C#N)c3)cc12` [US20250243194, Example 7.22], the pKi was 7.70.
Regarding `Cc1ncnc2ccc(-c3sc(NC(=O)N4C[C@@H]5OCCN(C)[C@@H]5C4)nc3-c3cccc(C#N)c3)cc12` [US20250243194, Example 7.20], the pKi is 7.24.
Still for that read-out and setting: the value for `COc1ncnc2ccc(-c3sc(NC(=O)N4CC5(COC5)C4)nc3-c3cccc(C#N)c3)cc12` [US20250243194, Example 12] was 9.70.
On the same count and under the same terms, the value for `Cc1ncnc2ccc(-c3sc(NC(=O)N4CCNCC4)nc3-c3cccc(C#N)c3)cc12` [US20250243194, Example 7.21] was 8.05; that for `Cc1ccnc2ccc(-c3sc(NC(=O)N4CC5(COC5)C4)nc3-c3cccc(C#N)c3)cc12` [US20250243194, Example 11] was 9.40.
On to `Cn1cc(-c2sc(NC(=O)N3CC4(COC4)C3)nc2-c2cccc(C#N)c2)c2cccnc21` [US20250243194, Example 16], for which the pKi is 6.91.

In a further assay the target is Adenosine receptor A2a (Homo sapiens, UniProt P29274). Described as above. How it is done:
as §1
Turning to `Cc1ncnc2ccc(-c3sc(NC(=O)N4CCC(N(C)C)CC4)nc3-c3cccc(C#N)c3)cc12` [US20250243194, Example 7.6], the pKi was 9.26.
On the same count and under the same terms, with `Cc1ncnc2ccc(-c3sc(NC(=O)N4CCN(C)CC4)nc3-c3cccc(C#N)c3)cc12` [US20250243194, Example 7.22] the figure was 9.38.
The same measure, in the same setting: with `Cc1ncnc2ccc(-c3sc(NC(=O)N4C[C@@H]5OCCN(C)[C@@H]5C4)nc3-c3cccc(C#N)c3)cc12` [US20250243194, Example 7.20] the figure was 9.70.
As for `COc1ncnc2ccc(-c3sc(NC(=O)N4CC5(COC5)C4)nc3-c3cccc(C#N)c3)cc12` [US20250243194, Example 12], the pKi was 9.77.
Turning to `Cc1ncnc2ccc(-c3sc(NC(=O)N4CCNCC4)nc3-c3cccc(C#N)c3)cc12` [US20250243194, Example 7.21], the pKi was 9.52.
For `Cc1ccnc2ccc(-c3sc(NC(=O)N4CC5(COC5)C4)nc3-c3cccc(C#N)c3)cc12` [US20250243194, Example 11], the pKi was 10.40.
With `Cn1cc(-c2sc(NC(=O)N3CC4(COC4)C3)nc2-c2cccc(C#N)c2)c2cccnc21` [US20250243194, Example 16], the pKi was 8.29.

Another assay has as its target T2, Adenosine receptor A2b (Homo sapiens, UniProt P29275).
T2 sequence (P29275 whole entry): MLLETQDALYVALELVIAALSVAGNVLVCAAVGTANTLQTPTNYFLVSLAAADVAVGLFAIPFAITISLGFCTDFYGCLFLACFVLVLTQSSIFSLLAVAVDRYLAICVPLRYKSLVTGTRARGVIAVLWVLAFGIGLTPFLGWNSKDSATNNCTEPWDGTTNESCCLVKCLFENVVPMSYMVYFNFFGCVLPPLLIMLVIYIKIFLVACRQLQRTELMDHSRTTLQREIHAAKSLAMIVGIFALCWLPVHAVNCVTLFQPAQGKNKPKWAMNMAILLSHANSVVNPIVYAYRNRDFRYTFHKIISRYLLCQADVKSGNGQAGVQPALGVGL
The assay is described as above. How it is done:
as §1
Take `Cc1ncnc2ccc(-c3sc(NC(=O)N4CCC(N(C)C)CC4)nc3-c3cccc(C#N)c3)cc12` [US20250243194, Example 7.6]: the pKi is 8.60.
In the case of `Cc1ncnc2ccc(-c3sc(NC(=O)N4CCN(C)CC4)nc3-c3cccc(C#N)c3)cc12` [US20250243194, Example 7.22], the pKi is 8.52.
For the compound `Cc1ncnc2ccc(-c3sc(NC(=O)N4C[C@@H]5OCCN(C)[C@@H]5C4)nc3-c3cccc(C#N)c3)cc12` [US20250243194, Example 7.20], the negative-log Ki (pKi) was 8.85.
`COc1ncnc2ccc(-c3sc(NC(=O)N4CC5(COC5)C4)nc3-c3cccc(C#N)c3)cc12` [US20250243194, Example 12]: the negative-log Ki (pKi) was 9.10.
Turning to `Cc1ncnc2ccc(-c3sc(NC(=O)N4CCNCC4)nc3-c3cccc(C#N)c3)cc12` [US20250243194, Example 7.21], the pKi is 8.80.
As to `Cc1ccnc2ccc(-c3sc(NC(=O)N4CC5(COC5)C4)nc3-c3cccc(C#N)c3)cc12` [US20250243194, Example 11], the pKi is 9.30.
The same measure, in the same setting: the value for `Cn1cc(-c2sc(NC(=O)N3CC4(COC4)C3)nc2-c2cccc(C#N)c2)c2cccnc21` [US20250243194, Example 16] was 8.01.

A further assay has as its target T3, Adenosine receptor A3 (Homo sapiens, UniProt P0DMS8).
T3 sequence (P0DMS8 whole entry): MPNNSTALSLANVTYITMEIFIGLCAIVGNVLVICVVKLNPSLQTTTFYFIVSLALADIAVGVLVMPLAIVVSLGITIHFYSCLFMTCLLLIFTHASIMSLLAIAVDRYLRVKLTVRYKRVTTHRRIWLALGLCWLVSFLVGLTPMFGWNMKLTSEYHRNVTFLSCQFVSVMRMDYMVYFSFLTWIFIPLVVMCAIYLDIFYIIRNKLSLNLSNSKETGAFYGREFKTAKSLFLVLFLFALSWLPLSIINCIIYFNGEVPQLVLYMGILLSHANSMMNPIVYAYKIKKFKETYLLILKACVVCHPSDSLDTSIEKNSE
The assay is described as above. How it is done: as §1
For `Cn1cc(-c2sc(NC(=O)N3CC4(COC4)C3)nc2-c2cccc(C#N)c2)c2cccnc21` [US20250243194, Example 16], the pKi was 5.67.
